Assay results published in publication PMC7200681, “The calcitonin-like system is an ancient regulatory system of biomineralization” (Scientific Reports, 2020).
Bridge positions count the residues as written; N and C are the ends.

Columns and labels:
mussel CALCRIIc = test: Calcium mobilization assay (apoaequorin bioluminescence), dose-response, HEK 293 cells expressing mussel CALCRIIc; format: cell-based, Mytilus coruscus; conditions: HEK 293/apoaequorin, 1 μM to 0.01 nM
Excerpt: The complete sequence of the Mediterranean mussel CALCRIa was amplified using specific primers (Table 1) from cDNA of a tissue mixture (mantle, adductor muscle, gills, gonads) using a proofreading DNA polymerase (iProof BIORAD, Portugal) and cloned into the pGEMT-easy vector (PROMEGA, Spain). The Mediterranean mussel CALCRIIa transcript that was found in the mantle transcriptome was incomplete and lacked the N-terminus (by comparisons with the hard-shelled mussel homologue) and so the remaining sequence (from 1–393 bp) was deduced from the hard-shelled mussel homologue receptor and the receptor was synthesised and supplied by GENESCRIPT (USA). The complete transcripts for mussel CALCRIc, CALCRIIb and CALCRIIc were only found in the hard-shelled mussel mantle transcriptome and homologues were only found in the Mediterranean mussel genome as they were absent from the species mantle transcriptome and so they were also synthesised and supplied by GENESCRIPT (USA) using the hard-shelled mussel receptor sequences as template. […]
Mammalian cell cultures and transfections followed the methodology described by[89],[90]. […] Cell recovery was monitored daily and the medium was changed every two days until no cell death was observed. […]
(§1) HEK293 cells stably expressing five mussel receptors (CALCRIa, CALCRIc, CALCRIIa, CALCRIIb and CALCRIIc) were stimulated with the two mussel peptides and the vertebrate (human and salmon) calcitonins. Receptor activation was assessed in vitro by measuring two intracellular signalling pathways: a) production of cAMP and b) mobilization of calcium (Ca^2+). The cellular response was initially assessed using 10 μM of each peptide. […]
Stable cell lines expressing the mussel receptors were transiently co-transfected with the mitochondrial targeted apo-aequorin protein cloned in pcDNA3.1. Two days after transfection cells were washed, counted and resuspended in 1 ml of DMEM /F12 Ham (without phenol red)/0.1% BSA supplemented with 2 µM coelenterazine (SIGMA-ALDRICH). […]

mussel CALCRIa = test: Calcium mobilization assay (apoaequorin bioluminescence), dose-response, HEK 293 cells expressing mussel CALCRIa; format: cell-based, Mytilus galloprovincialis; conditions: calcium mobilization, HEK 293/apoaequorin, 1 μM to 0.01 nM
Excerpt: (§2) The complete sequence of the Mediterranean mussel CALCRIa was amplified using specific primers (Table 1) from cDNA of a tissue mixture (mantle, adductor muscle, gills, gonads) using a proofreading DNA polymerase (iProof BIORAD, Portugal) and cloned into the pGEMT-easy vector (PROMEGA, Spain). The Mediterranean mussel CALCRIIa transcript that was found in the mantle transcriptome was incomplete and lacked the N-terminus (by comparisons with the hard-shelled mussel homologue) and so the remaining sequence (from 1–393 bp) was deduced from the hard-shelled mussel homologue receptor and the receptor was synthesised and supplied by GENESCRIPT (USA). The complete transcripts for mussel CALCRIc, CALCRIIb and CALCRIIc were only found in the hard-shelled mussel mantle transcriptome and homologues were only found in the Mediterranean mussel genome as they were absent from the species mantle transcriptome and so they were also synthesised and supplied by GENESCRIPT (USA) using the hard-shelled mussel receptor sequences as template. The mussel CALCRIb transcript was incomplete and lacked both N and C-terminal regions and it was not possible to obtain the complete transcript either by searching both mussels mantle transcriptomes or the Mediterranean mussel genome and so it was not produced. All synthetized receptors were provided in the pUC57 cloning vector by the company and receptor codon usage was optimized to favour a high level of expression in mammalian cells.
(§3) Mammalian cell cultures and transfections followed the methodology described by[89],[90]. Mammalian HEK293 cells (ECACC, UK) were used and they were maintained in complete Dulbecco’s modified Eagle’s medium (DMEM, 4.5 g/l glucose, 110 mg/l sodium pyruvate and L-glutamine, SIGMA-ALDRICH, Spain) supplemented with 10% sterile foetal bovine serum (FBS), 0.1% penicillin: streptomycin antibiotic mix (10,000 U:10 mg/ml, Sigma) and 250 μg /ml sterile filtered 1:100 amphotericin B solution (SIGMA-ALDRICH) in a humid 5% CO2 incubator (HERAEUS, Portugal) at 37 °C. On the day prior to transfection, 2–3 × 10^5 HEK293 cells were seeded on 6 well plates (SARSTEDT, Portugal) and transfected with Fugene HD transfection reagent (2 DNA: 4 Fugene ratio, PROMEGA) following the manufacturer’s protocol. Seventy-two hours after transfection, 800 μg/ml of the antibiotic Geneticin (SIGMA-ALDRICH) was added to the medium to select and isolate stable receptor cell lines. Cell recovery was monitored daily and the medium was changed every two days until no cell death was observed. […]
as §1
(§4) Stable cell lines expressing the mussel receptors were transiently co-transfected with the mitochondrial targeted apo-aequorin protein cloned in pcDNA3.1. Two days after transfection cells were washed, counted and resuspended in 1 ml of DMEM /F12 Ham (without phenol red)/0.1% BSA supplemented with 2 µM coelenterazine (SIGMA-ALDRICH). […] The injector system of the Biotek Synergy 4 microplate reader (USA) was used to inject 50 µl of the cell suspensions into wells containing 50 μl of the diluted peptide in DMEM / F12 Ham / 0.1% BSA. […]

mussel CALCRIIa = test: Calcium mobilization assay (apoaequorin bioluminescence), dose-response, HEK 293 cells expressing mussel CALCRIIa; format: cell-based, Mytilus galloprovincialis; conditions: calcium mobilization, HEK 293/apoaequorin, 1 μM to 0.01 nM
Excerpt: as §2, §3, §1, §4

[1] = tested on: alpha-carbonic anhydrase (CA) esterase activity in mussel mantle edge; test: Esterase (carbonic anhydrase) activity in mantle after ex-vivo incubation; design: species or system Mytilus galloprovincialis; conditions: after exposure to CALCIIa 10 μM or ouabain 2 mM; 4-Nitrophenyl acetate substrate; n = 6
Experimental: (§5) (A) Esterase activity and (B) Acid phosphatase activity. Enzyme activity was quantified in protein extracts from the mantle of control or challenged samples that were incubated with the mussel CALCIIa peptide. Values represent the mean ± SEM (CA, n = 6 and TRAP, n = 10) performed in duplicate. Prism GraphPad v5 software was used to assess the significance of the differences between the groups using One-way Anova and Tukey’s multiple comparison test. […] C - control; P - peptide (10 μM); O - ouabain (2 mM), OP - ouabain (2 mM) and peptide (10 μM); PreOP - pre stimulation for 1 hour with the peptide and 4 hours incubation with OP.
(§6) The posterior mantle edge region of the Mediterranean mussel was collected and washed in culture medium. The composition of the culture medium was as described in[91] […] The culture medium was supplemented with heat inactivated 2% FBS (SIGMA-ALDRICH), 0.1% penicillin: streptomycin antibiotic mix (10.000 U:10 mg/ml, SIGMA-ALDRICH) and 250 μg/ml sterile filtered 1:100 amphotericin B solution (Sigma-Aldrich). The posterior mantle edge from mussels was collected into culture medium and cut into fragments of approximately 1–2 mm in length. […]
Esterase activity in the mussel posterior mantle edge (n = 6/experimental group) was quantified using a colorimetric assay that measures the conversion of the substrate 4-Nitrophenyl acetate to p-nitrophenolate[92]. […]

[2] = tested on: acid phosphatase (AP) activity in mussel mantle edge; test: Acid phosphatase (TRAP) activity in mantle after ex-vivo incubation; design: species or system Mytilus galloprovincialis; conditions: after exposure to CALCIIa 10 μM or ouabain 2 mM; TRAP assay, pNPP, pH 5.3; p < 0.05
Experimental: as §5, §6
Acid phosphatase activity of the mantle protein extracts (n = 6/ group) was determined using 96 well-plates (GREINER, Germany) and a tartrate resistant acid phosphatase (TRAP) assay as described in[93].

H-CTWGGGMSDEMCSTVDIDEIQRSFQVIHDRNSP-NH2 (disulfide 1-12 (inferred)) [CALCIIa, Mediterranean mussel calcitonin-like mature peptide, 33 aa, synthesized with disulphide bond and C-terminal amidation]
Activation of mussel CALCRIIc in dose-response analysis (in words) (mussel CALCRIIc): exclusively activated
Activation of mussel CALCRIa in dose-response analysis (in words) (mussel CALCRIa): not activated
Activation of mussel CALCRIIa in dose-response analysis (in words) (mussel CALCRIIa): not activated
CA esterase activity in mantle edge (in words) [1]: No change
Acid phosphatase (AP) activity in mantle edge compared to control (in words) [2]: significantly decreased
